Laboratory results published in paper PMC12389646, “Design, Synthesis, and Bioactivity Assessment of Modified Vemurafenib Analog” (Pharmaceuticals, 2025).

Columns and labels:
[1] = tested on: non-tumor HEK293T cell line; assay: MTS cell viability assay, HEK293T; type: cell-based, human; settings: for IC50: Homo sapiens, HEK-293T, 24 h treatment; for Selectivity Index: IC50 HEK293T divided by IC50 A375
Protocol: (§1) The human cutaneous melanoma cancer cell line A375, obtained from the American Type Culture Collection (ATCC, Rockville, MD, USA) and human embryonic kidney HEK293T cell line, obtained from Rio de Janeiro Cell Bank (BCRJ, Rio de Janeiro, Brazil), were cultured in Dulbecco’s Modified Eagle’s Medium (DMEM, Sigma-Aldrich, St. Louis, MO, USA) supplemented with L-glutamine (2 mM), 10% fetal bovine serum (FBS), 50 IU/mL penicillin and 50 μg/mL streptomycin (Sigma-Aldrich, St. Louis, MO, USA). Cells were maintained at 37 °C in a humidified atmosphere containing 5% CO2. Low cell passages (between 5 and 20) were used in the present study.
(§2) Cell viability was measured using an MTS method based on the conversion of the tetrazolium salt MTS (3-(4,5-dimethylthiazol-2-yl)-5-(3-carboxymethoxyphenyl)-2-(4-sulfophenyl)-2H-tetrazolium, Sigma-Aldrich, St. Louis, MO, USA) to a purple formazan in the presence of phenazine methosulfate. The enzymes responsible are NADPH-dependent dehydrogenases, which are active in viable cells. Briefly, cells (5 × 10^4/well) were seeded in 96-well plates in medium with 10% FBS; after 24 h, the complete medium was replaced with fresh medium containing 1% FBS and incubated for 24 h. Fresh stock solutions were prepared on the day of the experiment, and the cells were treated with different concentrations of vemurafenib and analogs (0.01, 0.1, 0.5, 1, 5, and 10 μM). Effects were evaluated after 24 h. Untreated cells were incubated as controls. Following drug exposure, MTS was added, and the absorbance was measured at 570 nm using a microplate reader (CLARIOStar Plus, BMG LabTech, Ortenberg, Germany).
(§3) All the values of in vitro experiments are presented as the mean ± standard error of three independent experiments. Statistical analyses were performed via a one-way ANOVA with Dunnett’s post hoc test, and statistical significance was defined as * p < 0.05. IC50 values were calculated by non-linear regression analysis using an Inhibitor vs. normalized response model curve fit, as implemented. Statistical analyses were performed with GraphPad Prism 10.1.2 (GraphPad Software Inc., San Diego, CA, USA).

MMP-2 = assay: Gelatin zymography, MMP-2 in A375 conditioned media; type: cell-based, human; settings: A375 cells, 1 μM and 5 μM, 24 h
Protocol: (§4) The potential effects of vemurafenib and its analogs on MMP-2 and MMP-9 activity in A375 cells were evaluated using gelatin zymography to detect gelatinolytic activity in conditioned media.
(§5) Gelatin zymography was carried out according to [30], using 7.5% SDS-polyacrylamide gels with 0.2% (w/v) gelatin. SDS-PAGE was run at 100 V at room temperature. Following electrophoresis, the gels were removed and placed in 2.5% (v/v) Triton X-100 to renature enzymes for 60 min. Then, gels were incubated in 50 mM Tris-HCl, 1 μM ZnCl2, 5 mM CaCl2, pH 7.5, overnight, to allow sufficient time for genatinolytic activity to occur. Following overnight incubation at 37 °C, gels were incubated in a staining solution (0.5% (v/v) Coomassie blue in a 40% methanol-10% acetic acid-water mixture) for 60 min. Following incubation, the staining solution, the gels were washed with the destaining solution (without coomassie blue) until the time to start to see the bands. Then imaged with a ChemiDoc^TM MP (BIO-RAD, Hercules, CA, USA) gel imaging system. Total protein and gelatinase activity were quantified using Image Lab™ Software 6.1 (BIO-RAD, Hercules, CA, USA).

[2] = tested on: human melanoma A375 cells; assay: MTS cell viability assay, A375; type: cell-based; settings: A-375, 24 h treatment, 0.01-10 μM tested
Protocol: as §1, §2, §3

A375 cells = assay: TUNEL DNA fragmentation assay; type: cell-based, human; settings: 5 μM, 24 h
Protocol: To detect DNA fragmentation in A375 cells, a modified apoptosis TUNEL method was used with the MEBSTAIN Apoptosis TUNEL Kit Direct (MBL International Corporation, Woburn, MA, USA) according to the manufacturer’s protocol. Briefly, cells were grown in 8-well culture slides (Corning, NY, USA) and incubated with the compounds (5 μM) for 24 h. Following treatments, the cells were washed with PBS and subsequently stained with TdT buffer, TdT solution, and Propidium Iodide, according to the manufacturer’s instructions. Experiments were conducted by fluorescent microscopy. The images were collected by an EVOS M5000 microscope (Thermo Fisher Scientific, Waltham, MA, USA).

MMP-9 = assay: Gelatin zymography, MMP-9 in A375 conditioned media; type: cell-based, human; settings: A375 cells, 1 μM and 5 μM, 24 h
Protocol: as §4, §5

| SMILES | IC50 [2] [µM] | IC50 ([1]; HEK293T cells, MTS) [µM] | Selectivity Index [1] | MMP-2 expression and activity (MMP-2) | MMP-2 expression and activity (MMP-2; listed as RF-87A) | DNA fragmentation / TUNEL-positive apoptotic cells (A375 cells) | cytotoxicity toward HEK293T cells ([1]; HEK293T cells, MTS) | MMP-9 expression and activity (MMP-9) |
| --- | --- | --- | --- | --- | --- | --- | --- | --- |
| O=C(N/N=C/c1c[nH]c2ncc(Br)cc12)c1ccc2c(c1)CCCC2 [RF-86A (2a), (E)-N-((5-Bromo-1H-pyrrolo[2,3-b]pyridin-3-yl)methylene)-5,6,7,8-tetrahydronaphthalene-2-carbohydrazide] | 6.99 | 114 | 16.37 | reduced | – | – | – | – |
| O=C(N/N=C/c1c[nH]c2ncc(Br)cc12)c1ccccn1 [RF-87A (2b), (E)-N-((5-Bromo-1H-pyrrolo[2,3-b]pyridin-3-yl)methylene)picolinohydrazide] | 47.2 | 142 | 3.01 | reduced | reduced MMP-2 activity only at the lower concentration (1 μM) | – | – | – |

Further molecules by falling IC50 [2], results first:

| IC50 [2] [µM] | SMILES | IC50 ([1]; HEK293T cells, MTS) [µM] | Selectivity Index [1] | MMP-2 expression and activity (MMP-2) | MMP-2 expression and activity (MMP-2; listed as RF-87A) | DNA fragmentation / TUNEL-positive apoptotic cells (A375 cells) | cytotoxicity toward HEK293T cells ([1]; HEK293T cells, MTS) | MMP-9 expression and activity (MMP-9) |
| --- | --- | --- | --- | --- | --- | --- | --- | --- |
| 53 | O=C(N/N=C/c1c[nH]c2ncc(Br)cc12)c1cnccn1 [RF-94A (2c), (E)-N-((5-Bromo-1H-pyrrolo[2,3-b]pyridin-3-yl)methylene)pyrazine-2-carbohydrazide] | 25.8 | 0.49 | reduced | – | higher number of apoptotic cells | – | – |
| 46.3 | O=C(N/N=C/c1c[nH]c2ncc(Br)cc12)c1cnc2ccccc2n1 [RF-94B (2d), (E)-N-((5-Bromo-1H-pyrrolo[2,3-b]pyridin-3-yl)methylene)quinoxaline-2-carbohydrazide] | 25.5 | 0.55 | – | – | – | – | – |
| 7.68 | CCCS(=O)(=O)Nc1ccc(F)c(C(=O)c2c[nH]c3ncc(-c4ccc(Cl)cc4)cc23)c1F [Vemurafenib] | > 1000 | >1000 | – | – | – | no cytotoxicity | upregulated |
